We go through 79 compounds from a melting point compilation (Tetko et al.).

SMILES strings stand for the structures.

For orientation: melting point means the temperature, or range, at which the solid turns liquid. In turn, `Cc1cc(C)c2c(N)n[nH]c2n1` returned a melting point of 280 °C.

Regarding `CS(=O)(=O)c1ccc2ccn(O)c2c1`, the melting point lay in the range of 174 to 176 °C.

In the case of `Cc1ccc(CO)cc1C`, the melting point worked out at 64 °C.

`NC(=S)Nc1ccc(Oc2ccccc2)cc1` displayed a melting point of 175 to 177 °C.

`COC(=O)c1c(C)c(Br)c(OC)c(Br)c1OC` had a melting point of 60 °C.

For `NNC(=O)c1ccc(Cl)nc1`, the melting point was 250 °C.

As to `Oc1cc(C(F)(F)F)nc2ccc(Br)cc12`, the melting point stood at 290 °C.

In turn, `C/C=C/c1nc(O)n(-c2ccccc2)n1` had a melting point of 188 °C.

`CCOC(=O)/C(=C\c1ccccc1)c1ccccc1[N+](=O)[O-]` yielded a melting point of 95 °C.

`CN1CCOc2cc(C(=O)Cl)ccc21` displayed a melting point of 96 to 100 °C.

On to `COc1ccc(-c2cn3c(n2)sc2ccccc23)cc1`, for which the melting point was in the range of 177 to 179 °C.

`Cc1nc(-c2ccc(C(F)(F)F)cc2)sc1C#N` yielded a melting point of 155 to 156 °C.

`Brc1nc(Br)c(Br)[nH]1` showed a melting point of 208 to 212 °C.

For the compound `OCc1cccc(-c2ccccc2)c1`, the melting point was found to be 55 °C.

Compound `Cc1cc(Cl)cc(Cl)c1S(N)(=O)=O` had a melting point of 168 to 170 °C.

`NNC(=O)Cc1ccccc1` gave a melting point of 115 to 117 °C.

As for `ClCc1csc2ccc(Br)cc12`, the melting point lay within 106 to 108 °C.

For `COP1(=S)OCc2ccccc2O1` (centres undefined), the melting point was determined as 55 °C.

As for `CCC(COC(=O)c1cc(OC)c(OC)c(OC)c1)(c1ccccc1)N(C)C` (centres undefined), the melting point was determined as 79 °C.

`O=C1c2[nH]c3ccc(Br)cc3c2CCN1Cc1ccc(Cl)cc1` gave a melting point of 233 °C.

`C=C1C(=O)C23C(OC)CC4C5(C)CCCC4(COC5)C2C(O)CC1C3O` (centres undefined) displayed a melting point of 288 °C.

`O=C(O)c1ccccc1OP(=O)(O)O`: the melting point amounted to 168 °C.

`c1ccc(-c2noc(-c3ccccc3)n2)cc1` showed a melting point of 109 °C.

The compound `c1nnc(SCCSc2nnc[nH]2)[nH]1` gave a melting point of 197 to 200 °C.

Compound `CC(=O)OCC(=O)O` displayed a melting point of 67.5 °C.

For the compound `FC(F)(F)C(F)(F)C(F)(F)C(F)(F)C(F)(F)C(F)(F)C(F)(F)C(F)(F)C(F)(F)C(F)(F)C(F)(F)C(F)(F)I`, the melting point was in the range of 99 to 101 °C.

Regarding `CC1=C(C)C([Si](C)(C)C2C(C)=C(C)C(C)=C2C)C(C)=C1C`, the melting point lay within 65 to 68 °C.

Regarding `CNC(=NO)c1cc(C(C)(C)C)c(O)c(C(C)(C)C)c1`, the melting point is 200 to 201 °C.

`CCOC(=O)C1=C(C)N=c2cc3c(cc21)=C(C(=O)OCC)C(C)=N3` displayed a melting point of 342 °C.

For the compound `Brc1cnc(N2CCNCC2)nc1`, the melting point lay in the range of 77 to 79 °C.

In the case of `Cc1c(CO)cnn1-c1ccc(F)cc1`, the melting point was 120 to 121 °C.

`O=C1CSC(=S)N1c1ccccc1` showed a melting point of 194 °C.

`CCC(C)[C@@H]1NC(=O)OC1=O` (some centres undefined) registered a melting point of 66 °C.

`Cc1c([N+](=O)[O-])c(C)c([N+](=O)[O-])c(C(C)(C)C)c1[N+](=O)[O-]` gave a melting point of 110 °C.

Turning to `NC(Cc1c[nH]c2ccc(O)cc12)C(=O)O` (racemic), the melting point stood at 299 °C.

For the compound `O=Cc1ccc(N2CCCCC2)nc1`, the melting point is 43 °C.

`O=C(NCc1ccccc1)OCCO` yielded a melting point of 40 °C.

Consider `Cc1ccc(-c2csc(/C(C#N)=N\Nc3cccc(C)c3)n2)cc1`, for which the melting point turned out to be 132 °C.

As to `CC(=O)Oc1ccc(Br)cc1`, the melting point was found to be 21 °C.

Turning to `C=CCc1c(O)cccc1C=O`, the melting point was 104 to 106 °C.

The compound `CC(=O)c1c(-c2ccccc2)noc1C` showed a melting point of 55 to 58 °C.

Turning to `CC(C)n1cc(-c2ccc(F)cc2)c2ccccc21`, the melting point worked out at 97 °C.

In turn, `N#Cc1ccc(Cl)nc1` returned a melting point of 118 °C.

In turn, `CN1CCC23CCCCC2C1Cc1ccc(O)cc13` (centres undefined) showed a melting point of 198 °C.

With `CC(C)n1cc(C#N)c(=O)[nH]c1=O`, the melting point was 265 to 268 °C.

With `N#CC(C#N)=c1ccc(=C(C#N)C#N)cc1`, the melting point was in the range of 287 to 289 °C.

Compound `O=C(CNc1ccccc1)c1ccc(C(=O)CNc2ccccc2)cc1` registered a melting point above 200 °C.

Turning to `CC12CCC(C(CC(N)=O)C1=O)C2(C)C` (centres undefined), the melting point came out at 101 °C.

`N#Cc1ccc(C=Cc2ccccc2C=O)c([N+](=O)[O-])c1` yielded a melting point of 210 °C.

The compound `CCCCN(CCCC)C(C(N)=O)c1ccc(OC)cc1` (centres undefined) showed a melting point of 134 °C.

Compound `CCOc1c(N2CCOCC2)cnn(C)c1=O` had a melting point of 90 °C.

`C[Si](C)(C)O[Si](C)(C)C` gave a melting point of -59 °C.

Consider `O=C1C=C(Cl)C(=O)O1`, for which the melting point is 33 °C.

Compound `O[C@@H]1CCCC[C@H]1NCc1ccccc1` (relative stereo) gave a melting point of 69 to 72 °C.

Compound `CC=Cc1ccc2c(c1)OCO2` registered a melting point of 8.2 °C.

For `Cc1csc2ncnc(Cl)c12`, the melting point was 137 to 138 °C.

For the compound `Cc1cnc(Cl)c(N)c1`, the melting point was in the range of 82 to 87 °C.

`C#CC1(O)C=CC2C3CCC4=CC(=O)CCC4C3CCC21CC` (centres undefined) displayed a melting point of 198 °C.

The compound `COc1ccc2c(=O)c(C)c(-c3ccccc3)oc2c1CN(C)C` had a melting point of 110 °C.

In turn, `O=C(O)c1ccc2c(c1)C(=O)c1cc(C(=O)O)ccc1-2` came in with a melting point of 407 °C.

Regarding `O=C(c1ccc(-c2ccccc2)cc1)c1ccc(-c2ccccc2)cc1`, the melting point was determined as 238 °C.

The compound `N#Cc1ccc(N)c2ccccc12` came in with a melting point of 176 °C.

Compound `O=[N+]([O-])c1ccc(C(Cl)C(Cl)c2ccc(C(Cl)C(Cl)c3ccc([N+](=O)[O-])cc3[N+](=O)[O-])cc2)c([N+](=O)[O-])c1` (centres undefined) returned a melting point of 92 to 99 °C.

For the compound `CCCCCCCCCCC=CCCCCCCCC(=O)O`, the melting point stood at 23 °C.

Compound `O=C=Nc1ccc(-c2ccco2)cc1` yielded a melting point of 66 °C.

Compound `CC(C)N(C(=O)Cl)C(C)C` yielded a melting point of 55 to 60 °C.

For the compound `c1ccc(Cc2cccnc2)cc1`, the melting point worked out at 34 °C.

In the case of `CCN(CC)c1ccccc1C`, the melting point is -60 °C.

`COc1ccc(C=C(C(=O)O)C(=Cc2ccc(OC)cc2)C(=O)O)cc1` gave a melting point of 263 °C.

`CCCCCCCCCC(C)C` returned a melting point of -47 °C.

Regarding `CS(=O)(=O)OS(C)(=O)=O`, the melting point was in the range of 69 to 70 °C.

`COc1ccc2nc(Cl)c(CO)cc2c1` displayed a melting point of 133 °C.

`CCOC(=O)C1=C(C)NC(=O)NC1c1cccc(OC)c1OC` (centres undefined): the melting point was found to be 195 °C.

The compound `COc1cccc(C)c1` had a melting point of -47 °C.

On to `OCc1ccccc1O[C@@H]1O[C@H](CO)[C@@H](O)[C@H](O)[C@H]1O`, for which the melting point was in the range of 198 to 200 °C.

For `CN(C)C(=S)Cl`, the melting point is 42.5 °C.

Consider `Cc1c(N/N=C(/C#N)c2nc(-c3ccccc3)cs2)c(=O)n(-c2ccccc2)n1C`, for which the melting point stood at 226 °C.

With `CCCSCC`, the melting point was -117 °C.

`O=C(NN=CC=Cc1ccc([N+](=O)[O-])o1)c1ccc([N+](=O)[O-])s1` returned a melting point of 236 °C.
